What is called melting point is the temperature of the solid-liquid transition.

The structures appear in SMILES notation. Read-outs that look alike come from different tables or passages of the source.

For one data set, the system named is Aedes aegypti. Description: Aedes aegypti (Yellow fever mosquito) larvae test. The format is in vivo. As to conditions: 48 h.
The subject of data set [1] is Erysiphe graminis f.sp. tritici. Description: Erysiphe graminis f.sp. tritici (wheat powdery mildew) leaf disk assay. It is filed as in vivo. As to conditions: Blumeria graminis, foliar, 96 h, preventive, four days after inoculation, read-out: control of fungal infection, Erysiphe graminis fsp. tritici.
Data set [2] deals with Puccinia recondita f.sp. tritici. Description: Puccinia recondita f.sp. tritici (wheat brown rust) leaf disk assay. As to conditions: foliar, 216 h, preventive, nine days after inoculation, read-out: control of fungal infection, Puccinia recondita f.sp. tritici. The format is in vivo.
The next data set deals with Pyricularia oryzae. Description: whole plant or invertebrate. It is filed as in vivo. As to conditions: foliar, 96 h.
The subject of a further data set is Plasmopara viticola. Description: Plasmopara viticola (downy mildew of grapevine) leaf disk assay. The format is in vivo. As to conditions: foliar, 168 h, preventive, seven days after inoculation, read-out: control of fungal infection, Plasmopara viticola.
For a further data set, the system named is Plutella xylostella. The data set is described as follows: Plutella xylostella (Diamond back moth) artificial diet test. As to conditions: 120 h, read-out: control of Plutella xylostella.
Another data set deals with Phytophthora infestans. Description: whole plant or invertebrate. As to conditions: foliar, 96 h, read-out: control of fungal infection, Phytophthora infestans. It is filed as in vivo.
Setting [3] is: read-out: control of fungal infection, Pyricularia oryzae (at least 60% list).
Where [4] appears, read: read-out: control of fungal infection, Pyricularia oryzae (at least 80% list).

Turning to `CC(=O)NC1C[C@H]2CC[C@@H](C1)N2c1ncnc2sccc12` (stereo partly shown), the melting point is 196 °C.
Turning to `Cc1ccccc1CON=C1CC2CCC(C1)N2c1ncnc2sccc12` [Example 5.155], the pest or weed control at 2 ppm in the data set on Aedes aegypti is at least 80%. Further, the pest or weed control at 200 ppm in data set [1] is at least 80%; in data set [2], at least 80%; in the data set with Pyricularia oryzae (setting [3]), at least 60%; in the data set on Plasmopara viticola, at least 80%; with Plutella xylostella, at least 80%.
In turn, `Cn1cc(C(=O)N2[C@@H]3CC[C@H]2CC(Oc2ccc(C(F)(F)F)cn2)C3)c(C(F)(F)F)c1` (stereo partly shown) [2.218] registered a melting point of 147 °C.
With `CCc1ncnc(N2C3CCC2CC(=NOCc2ccccc2OC)C3)c1Cl` [Example 5.23], the pest or weed control at 200 ppm (in data set [1]; in data set [2]; in the data set with Plasmopara viticola) was at least 80% each time.
As for `CC1(C)COC2(CC3CCC(C2)N3c2ncnc3sccc23)O1` (stereo not shown) [Example 6.2], the pest or weed control at 200 ppm (in data set [1]; in data set [2]; with Phytophthora infestans; in the data set with Plasmopara viticola) was at least 80% each time.
Take `Cc1nc(OC2C[C@H]3CC[C@@H](C2)N3c2ncnc3sccc23)cc(N(C)C)n1` (stereo partly shown) [Example 1.53]: the pest or weed control at 200 ppm in the data set with Phytophthora infestans and in the data set with Plasmopara viticola was at least 80% throughout.
Compound `CCc1ncnc(N2[C@@H]3CC[C@H]2CC(O)C3)c1Cl` (stereo partly shown) had a melting point of 104 °C.
The compound `Clc1ccc(CON=C2CC3CCC(C2)N3c2ncnc3sccc23)cc1` [Example 5.142] returned a pest or weed control at 2 ppm with Aedes aegypti of at least 80%. In addition, the pest or weed control at 200 ppm in data set [1] is at least 80%; in data set [2] it was at least 80%; in the data set on Pyricularia oryzae (setting [3]), at least 60%; in the data set on Plasmopara viticola, at least 80%; in the data set with Plutella xylostella it was at least 80%.
As to `Cc1cc(OCC=C2CC3CCC(C2)N3c2ncnc3sccc23)nc(C)n1` [Example 3.18], the pest or weed control at 2 ppm in the data set on Aedes aegypti was at least 80%. The pest or weed control at 200 ppm (in data set [2]; in the data set on Plasmopara viticola) was at least 80% throughout.
`FC(F)(F)c1ccc(OC2C[C@H]3CC[C@@H](C2)N3c2ccnc3cc(Cl)ccc23)nc1` (stereo partly shown): the melting point was determined as 107 °C.
Same read-out and setting: the figure for `CCc1ncnc(N2C3CCC2CC(=CC(=O)O)C3)c1Cl` is 162 °C.
Take `Clc1ccc(CON=C2CC3CCC(C2)N3c2ncnc3sccc23)cc1Cl` [Example 5.169]: the pest or weed control at 200 ppm is at least 80% in data set [1]; at least 80% in data set [2]; at least 60% in the data set with Pyricularia oryzae (setting [3]); at least 80% in the data set on Pyricularia oryzae (setting [4]); at least 80% in the data set with Plasmopara viticola; at least 80% in the data set on Plutella xylostella.
With `c1ccc(C2COC3(CC4CCC(C3)N4c3ncnc4sccc34)O2)cc1` (stereo not shown) [Example 6.7], the pest or weed control at 2 ppm in the data set on Aedes aegypti was at least 80%. Besides, the pest or weed control at 200 ppm was at least 80% in data set [1]; at least 80% in data set [2]; at least 60% with Pyricularia oryzae (setting [3]); at least 80% in the data set with Pyricularia oryzae (setting [4]); at least 80% in the data set with Plasmopara viticola.
With `O=C(O)CC1CC2CCC(C1)N2c1ncnc2sccc12` (stereo not shown), the melting point worked out at 181 °C.
On the same count and under the same terms, under `N#Cc1c(Cl)nsc1N1[C@@H]2CC[C@H]1CC(Oc1ccc(C(F)(F)F)cn1)C2` (stereo partly shown) stands 157 °C.
Same read-out and setting: the figure for `N#Cc1sc(N2[C@@H]3CC[C@H]2CC(Oc2cc(C(F)(F)F)ccn2)C3)nc1C(F)(F)F` (stereo partly shown) is 129 °C.
On to `CCc1ccc(CON=C2CC3CCC(C2)N3c2ncnc(CC)c2Cl)cc1` [Example 5.17], for which the pest or weed control at 2 ppm in the data set on Aedes aegypti is at least 80%. Further, the pest or weed control at 200 ppm (in data set [1]; in data set [2]; with Phytophthora infestans; in the data set on Plasmopara viticola; in the data set with Plutella xylostella) was at least 80% each time.
In the case of `Cc1noc2ncnc(N3[C@@H]4CC[C@H]3CC(Oc3cc(C(F)(F)F)ccn3)C4)c12` (stereo partly shown), the melting point was determined as 192 °C.
In the data set with Aedes aegypti, `FC(F)(F)c1csc(CC2CC3CCC(C2)N3c2ncnc3sccc23)n1` (stereo not shown) [Example 7.18] had a pest or weed control at 2 ppm of at least 80%. Further, the pest or weed control at 200 ppm is at least 80% in data set [2], at least 60% in the data set with Pyricularia oryzae (setting [3]), at least 80% in the data set with Pyricularia oryzae (setting [4]) and at least 80% in the data set on Plasmopara viticola.
`N#Cc1ccccc1CON=C1CC2CCC(C1)N2c1ncnc2sccc12` [Example 5.191] returned a pest or weed control at 2 ppm in the data set with Aedes aegypti of at least 80%. Moreover, the pest or weed control at 200 ppm (in data set [1]; in data set [2]; in the data set with Plasmopara viticola) was at least 80% throughout.
In turn, `Fc1cccc(OCC=C2CC3CCC(C2)N3c2ncnc3sccc23)c1` [Example 3.38] had a pest or weed control at 2 ppm with Aedes aegypti of at least 80%. Also, the pest or weed control at 200 ppm in data set [2] is at least 80%; in the data set with Pyricularia oryzae (setting [3]), at least 60%; in the data set on Pyricularia oryzae (setting [4]), at least 80%; with Plasmopara viticola it was at least 80%; in the data set on Plutella xylostella, at least 80%.
`Fc1ccc(C(F)(F)F)cc1CON=C1CC2CCC(C1)N2c1ncnc2sccc12` [Example 5.238] had a pest or weed control at 2 ppm in the data set with Aedes aegypti of at least 80%. Besides, the pest or weed control at 200 ppm is at least 80% in data set [1]; at least 80% in data set [2]; at least 60% in the data set on Pyricularia oryzae (setting [3]); at least 80% in the data set on Plasmopara viticola; at least 80% with Plutella xylostella.
`COc1cc(C(C)=O)ccc1OC1C[C@H]2CC[C@@H](C1)N2c1ncnc2sccc12` (stereo partly shown) registered a melting point of 171 °C.
Same read-out and setting: under `N#Cc1c(Cl)nsc1N1[C@@H]2CC[C@H]1CC(Oc1cccc(C(F)(F)F)n1)C2` (stereo partly shown) stands 158 °C.
Same read-out and setting: under `Cn1cc(C(=O)N2[C@@H]3CC[C@H]2CC(Oc2cc(C(F)(F)F)ccn2)C3)c(C(F)(F)F)c1` (stereo partly shown) stands 183 °C.
For the compound `c1ccc2nc(CON=C3CC4CCC(C3)N4c3ncnc4sccc34)ccc2c1` [Example 5.193], the pest or weed control at 2 ppm in the data set with Aedes aegypti is at least 80%. The pest or weed control at 200 ppm (in data set [1]; in data set [2]; with Plasmopara viticola) was at least 80% throughout.
`CCc1ncnc(N2C3CCC2CC(=NOCc2ccc(Br)cc2)C3)c1Cl` [Example 5.19]: the pest or weed control at 200 ppm (in data set [1]; in data set [2]; in the data set with Phytophthora infestans; in the data set on Plasmopara viticola; with Plutella xylostella) was at least 80% each time.
`CCc1ncnc(N2C3CCC2CC(CC(N)=O)C3)c1Cl` (stereo not shown) registered a melting point of 101 °C.
`Cc1noc2ncnc(N3[C@@H]4CC[C@H]3CC(Oc3ccc(C(F)(F)F)cn3)C4)c12` (stereo partly shown) yielded a melting point of 238 °C.
The compound `CCC1COC2(CC3CCC(C2)N3c2ncnc3sccc23)O1` (stereo not shown) [Example 6.9] had a pest or weed control at 2 ppm in the data set on Aedes aegypti of at least 80%. The pest or weed control at 200 ppm (in data set [1]; in data set [2]; in the data set with Plasmopara viticola) was at least 80% in each case.
Compound `Clc1ccc(-c2nc(CON=C3CC4CCC(C3)N4c3ncnc4sccc34)cs2)cc1` [Example 5.255] registered a pest or weed control at 2 ppm with Aedes aegypti of at least 80%. Further, the pest or weed control at 200 ppm (in data set [1]; in data set [2]; with Phytophthora infestans; in the data set on Plasmopara viticola) was at least 80% throughout.
Regarding `CCOC(=O)c1ccc(CON=C2CC3CCC(C2)N3c2ncnc3sccc23)o1` [Example 5.259], the pest or weed control at 200 ppm (in data set [1]; in data set [2]; in the data set on Plasmopara viticola) was at least 80% throughout.
Consider `Clc1ccccc1CON=C1CC2CCC(C1)N2c1ncnc2sccc12` [Example 5.141], for which, in the data set on Aedes aegypti, the pest or weed control at 2 ppm is at least 80%. In addition, the pest or weed control at 200 ppm in data set [1] was at least 80%; in data set [2] it was at least 80%; in the data set with Pyricularia oryzae (setting [3]), at least 60%; with Phytophthora infestans, at least 80%; with Plasmopara viticola, at least 80%; in the data set with Plutella xylostella it was at least 80%.
In the case of `Clc1cc2c(cc1CON=C1CC3CCC(C1)N3c1ncnc3sccc13)OCO2` [Example 5.250], the pest or weed control at 2 ppm with Aedes aegypti is at least 80%. Moreover, the pest or weed control at 200 ppm (in data set [1]; in data set [2]; with Plasmopara viticola) was at least 80% in each case.
Take `Cc1cccc(CON=C2CC3CCC(C2)N3c2ncnc3sccc23)c1` [Example 5.157]: the pest or weed control at 200 ppm in data set [1] was at least 80%; in data set [2] it was at least 80%; with Pyricularia oryzae (setting [3]), at least 60%; in the data set with Phytophthora infestans it was at least 80%; in the data set on Plasmopara viticola, at least 80%.
On to `Clc1ccc(-c2csc(CC3CC4CCC(C3)N4c3ncnc4sccc34)n2)cc1` (stereo not shown) [Example 7.19], for which, in the data set with Aedes aegypti, the pest or weed control at 2 ppm is at least 80%. Besides, the pest or weed control at 200 ppm with Plasmopara viticola and in the data set on Plutella xylostella was at least 80% in each case.
`ClCC1COC2(CC3CCC(C2)N3c2ncnc3sccc23)O1` (stereo not shown) [Example 6.8] came in with a pest or weed control at 2 ppm with Aedes aegypti of at least 80%. For the same compound, the pest or weed control at 200 ppm (in data set [1]; in data set [2]; in the data set with Plasmopara viticola) was at least 80% in each case.
Turning to `Fc1cc(CON=C2CC3CCC(C2)N3c2ncnc3sccc23)cc(C(F)(F)F)c1` [Example 5.231], the pest or weed control at 200 ppm in data set [1] was at least 80%; with Pyricularia oryzae (setting [3]), at least 60%; with Plasmopara viticola, at least 80%.
